# Results taken from patent US10100010B1, “4-methoxy pyrrole derivatives or salts thereof and pharmaceutical composition comprising the same” (Daewoong Pharmaceutical Co., Ltd., priority 2015, dated 2018).
# System: 100% ethanol (EtOH)-induced gastric damage in rats
# Assay: 100% ethanol (EtOH)-induced gastric damage in rats, gastric damage inhibition and mucus enhancement
# Type: in vivo, Sprague Dawley (SD) rats
# Settings: oral 3.0, 10.0 and 30.0 mg/kg, 1 hour before 100% EtOH
# Method: The inhibitory activity and defensive factor-enhancing effects of the compound prepared in Example 8 were measured using 100% ethanol (EtOH)-induced gastric damage model (Paul V. Tan et al., 2002, Journal of Ethnopharmacology, 82, p 69-74). Male Sprague Dawley (SD) rats (body weight 180-200 g) was fasted for 24 hours with free access to water. Control group was orally administered with 5 mL/kg of 0.5% methyl cellulose (MC) aqueous solution, and the other groups were orally administered with test compounds suspended in 0.5% MC aqueous solution at a dose of 3.0, 10.0 and 30.0 mg/kg/5 mL. For comparison, the compound of Example 134 (Comparative Example 1), the compound of Example 165 (Comparative Example 2) and the compound of Example 166 (Comparative Example 3) in International Patent Publication No. WO2006/036024 were orally administered at the same dose by suspending 0.5% MC aqueous solution, respectively. 1 hour after oral administration, 1 mL of 100% EtOH was orally administered. 1 hour after EtOH administration, the test animals were sacrificed to remove the stomach. Ten in the total 20 animals scraped the mucus of stomach with a slide glass and the mucus contents were analyzed to calculate ED50. […] The incised stomach was placed on a fixture, fixed by a fixing pin while spreading out using a forcep and then the gastric damage area was measured to calculate ED50.
smiles,measurement,setting,value
"CNCc1cn(S(=O)(=O)c2cccc(F)c2)c(-c2ccc(F)cc2F)c1OC.Cl [Example 8, 1-(5-(2,4-difluorophenyl)-1-((3-fluorophenyl)sulfonyl)-4-methoxy-1H-pyrrol-3-yl)-N-methylmethanamine hydrochloride]",ED50,"Rattus norvegicus, read-out: Mucus secretion ED50",12.2 mg/kg
same,Gastric index ED50,gastric damage area,13.4 mg/kg
